The results in this text go back to publication PMC4104761, “Identification of a novel lytic peptide for the treatment of solid tumours” (Genes & Cancer, 2014).

For this data set, the system named is U87 cells. The data set can be described thus: Comparison of peptide variants by crystal violet staining and light microscopy. The following applies: U87 cells; 7.5, 10, 15, 20 and 25 µg/ml; 3 hours incubation. The text has this:
The sizes of the resulting in silico peptides varied from 10 to 30 amino acids. In order to facilitate their cellular internalisation, a TAT-HIV sequence was attached to the C-terminal ends. All peptides were […]. The peptide library was produced by Cambridge Peptides (Cambridge, UK). The peptides were then screened with the MTT (3-(4,5-dimethylthiazol-2-yl)-2,5-diphenyltetrazolium bromide) assay on U87 human glioma cells. Cellular morphology after peptide exposure was assessed by crystal violet staining and light microscopy. All experiments were performed in triplicate.
To increase the stability of the peptide, two further sub-formulations of the original formula (L-aa, containing only L-amino acids) were created: D-aa (retro inversed, (ri)), a peptide comprised of a backward sequence of the original in silico formula, yet made up solely of D-amino acids and an analogue peptide to original in silico peptide formula, comprised of D-amino acids. D-amino acids are highly resistant to protease mediated degradation and have a low immunogenic response. The respective peptide variants were tested in the following concentrations: 7.5, 10, 15, 20 and 25 µg/ml and incubated for 3 hours.

As to Ac-YGRKKRRQRRRGKTLRVAKAIYKRYIE-NH2, the “cytotoxic effect / potency by crystal violet staining” value is reported as “cytotoxic effect”.
